Data set [1] relates to ERK phosphorylation level in DLD-1 cells. In words: Inhibition of ERK phosphorylation level in DLD-1 cells (intracellular western blot). It is filed as cell-based. The note with it: summary statement. As for the experimental part: Intracellular western blot quantitative analysis was used to detect the inhibitory level of compounds on ERK phosphorylation in DLD-1 cells.
DLD-1 cells (ATCC, CCL-221) were seeded in a T75 culture flask at 2.5×10^6 cells/flask, and cultured in a RPMI 1640 medium containing 10% FBS for 2 days. On day 3, the cells were seeded on a 384-well plate, and cultured overnight at 37 °C, 5% CO2. After overnight culture, the plate was added with serially diluted compounds (the final content of DMSO was 0.5%), the negative group was added with DMSO, and incubated in a 37 °C, 5% CO2 incubator.
The cells were fixed, washed once with PBS, treated to disrupt membranes, and blocked at room temperature for 1 h. The blocking solution was removed. The plate was added with primary antibody (CST, Cat. No. #4370S), and incubated overnight at 4 °C The plate was washed 3 times with PBST (PBS solution added with 0.05% Tween-20), and soaked for 2 min each time. The plate was added with secondary antibody (LI-COR, Cat. No. 926-32211), and incubated at room temperature in the dark. The plate was washed 3 times with PBST, and soaked for 2 min each time.
The plate was centrifuged at 1000 rpm for 1 min, scanned on a two-color infrared laser imaging system (Odyssey® CLX) to read the signal.
Relative signal=800-channel signal values/700-channel signal values. […]
IC50 values were calculated using Graphpad 5 software.

The next data set deals with T1, CYP3A4 (Homo sapiens, UniProt P08684).
T1 construct: probe substrates midazolam and testosterone, ketoconazole control
T1 sequence (P08684 whole entry): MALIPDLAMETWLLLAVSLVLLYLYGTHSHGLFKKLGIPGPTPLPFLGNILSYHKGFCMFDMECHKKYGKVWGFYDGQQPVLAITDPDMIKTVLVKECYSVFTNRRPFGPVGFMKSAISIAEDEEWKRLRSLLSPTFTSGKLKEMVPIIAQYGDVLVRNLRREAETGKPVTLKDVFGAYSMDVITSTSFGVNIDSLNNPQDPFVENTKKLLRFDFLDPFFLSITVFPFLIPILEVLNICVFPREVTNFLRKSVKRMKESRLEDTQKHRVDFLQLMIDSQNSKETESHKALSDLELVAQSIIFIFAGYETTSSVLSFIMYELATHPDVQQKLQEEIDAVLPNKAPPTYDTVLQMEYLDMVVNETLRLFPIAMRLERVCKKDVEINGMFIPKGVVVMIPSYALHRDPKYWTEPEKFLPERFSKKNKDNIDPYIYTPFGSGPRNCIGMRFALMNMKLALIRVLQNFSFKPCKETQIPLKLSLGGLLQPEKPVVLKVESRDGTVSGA
As to the kind of experiment: Inhibition of cytochrome P450 CYP3A4 (substrates midazolam and testosterone). As to conditions: role: inhibitor; summary statement. In kind it is in vitro ADME.

The next data set relates to Mia Paca-2 tumor. In words: In vivo efficacy on Mia Paca-2 pancreatic cancer (alone or with trametinib). Further details: species or system mice. As for the experimental part: After one week of adaptive feeding of mice, Mia Paca-2 cells in a logarithmic phase were resuspended in serum-free DMEM, and then mixed with Matrigel in a ratio of 1:1. 1×10^7 Mia Paca-2 cells were inoculated subcutaneously at the right flank at 100 μL per mouse, and tumor growth was observed regularly. When the tumor grew to an average volume of 150 to 200 mm^3, the mice were randomly divided into a model group and an administration group (single drug, in combination with trametinib) based on the tumor size and body weight. The tumor size and body weight were measured and recorded before and during the administration. After the treatment, the tumor size in the model group was compared with that in the administration group to determine the efficacy.

Structures are written as SMILES.

Results on one molecule are retold here after patent US20260337190A1, “CRYSTAL FORM OF PYRIDINOPYRIMIDINONE COMPOUND, ACID SALT THEREOF, CRYSTAL FORM OF ACID SALT THEREOF, AND USE” (Wuhan Humanwell Innovative Drug Research and Development …, priority 2022, published 2026).

Procedure for CYP3A4: The inhibitory potential of compounds on cytochrome P450 (CYP450) subtype CYP3A4 (two substrates of midazolam and testosterone) was detected. First, the compound to be tested was prepared into a 10 mM stock solution in DMSO solvent, and the CYP3A4 inhibitor ketoconazole was prepared as 10 mM, 2.5 mM, and 2.5 mM stock solutions in DMSO solvent. The test compound and ketoconazole were diluted to 400-fold final concentration (compound: 10 μM, ketoconazole: 2.5 μM) with acetonitrile.
NADPH cofactor (10 mL of potassium phosphate buffer added with 66.7 mg NADPH) at 4-fold final concentration and substrates were prepared with potassium phosphate buffer (0.1 M, pH=7.4), with CYP3A4 substrate midazolam at a final concentration of 320 μM and CYP3A4 substrate testosterone at a final concentration of 20 μM.
A human liver microsome solution at a concentration of 0.2 mg/mL was prepared with potassium phosphate buffer on ice. A solution of the compound to be tested and a control inhibitor (control compound) solution at 2-fold final concentration were prepared with the human liver microsome solution on ice. The test wells were added with 30 mL of the test compound solution and the control inhibitor solution respectively, and then added with 15 mL of the substrate for duplication. […]

On to `Cc1nc(N[C@H](C)c2cccc(S(F)(F)(F)(F)F)c2)c2cn(C3(CF)CC3)c(=O)cc2n1` [compound of formula I, (R)-6-(1-(fluoromethyl)cyclopropyl)-2-methyl-4-((1-(3-(pentafluorosulfanyl)phenyl)ethyl)amino)pyrido[4,3-d]pyrimidin-7(6H)-one], for which, in data set [1], the “inhibitory effect on the ERK phosphorylation level in DLD-1 cells” value is given as “significant inhibitory effect”. In addition, the “inhibitory effect on CYP3A4 enzymes” value against CYP3A4 is reported as “no inhibitory effect”. Further, the “inhibitory effect on Mia Paca-2 tumor growth” value in the data set on Mia Paca-2 tumor (alone or in combination with trametinib) is listed as “significant inhibitory effect”. In the data set on Mia Paca-2 tumor (in combination with trametinib), the “combined use with trametinib vs single use, Mia Paca-2 tumor growth” value was “more effective than the single use”.
